# According to patent US20010016593A1, “Element giving rapid release of nicotine for transmucosal administration” (priority 1999, published 2001):
# Experiments:
# [1] = cigarette smoking; cited from earlier work
# [2] = cited from earlier work
# [3] = solutions on shaved bellies of cats; cited from earlier work
# [4] = in vivo; cited from earlier work
# [5] = pH less than 7; cited from earlier work
# [6] = Element placed in the mouth: subjectively reported nicotine pulse sensation; assay type: in vivo, humans; conditions: equivalent amounts of nicotine
# Source text: The experiments of Examples 1-16 above describe the physiological effects of consuming a measured (calculated) dose of nicotine in the manner of the instant invention. Moreover, the inventor has found a distinct physiological and mental sensation associated with the administration of one or more nicotine doses. This is believed to strongly resemble the physiological and mental sensation associated with inhaling a puff of the smoke of burning tobacco, which it is believed have some pleasurable component or consideration thereof on the part of the recipient. There is believed to be some longer-lasting physiological and/or mental satisfaction, or lack of further nicotine effect desire, after one or more administrations of nicotine, just as is the case for most people after smoking a part or all of one or more cigarettes.
# The examples as described above are of necessity reported in a subjective manner.
# [7] = during cigarette smoking; cited from earlier work
# [8] = 10 mg tablets swallowed at two hour intervals; cited from earlier work
Compound,time to carry nicotine from the lungs to the brain [1],"confusion, memory loss and lack of alertness associated with Alzheimer's disease ([2]; nicotine administration)","local tolerability of the injection ([2]; subcutaneous injection, under some conditions)","discriminative sensitivity and reaction time ([2]; subcutaneous injection, patients with dementia of the Alzheimer type)",rate of percutaneous absorption [3],"mental efficiency, rapid information processing, learning, and vigilance [4]",bucal absorption [5],efficiency of transmucosal administration compared with smoking [6],arterial levels exceeding venous levels [7],effect of swallowed tablets [8]
CN1CCCC1c1cccnc1 (stereo not shown) [nicotine],less than 20 seconds,"combated the confusion, memory loss and lack of alertness",severe muscular irritation,efficacious in improving discriminative sensitivity and reaction time,much more rapidly than nicotine salts,"improve mental efficiency, rapid information processing, learning, and vigilance",very slow,not as efficient as smoking,six to ten,–
CN1CCCC1c1cccnc1.O=C(O)C(O)C(O)C(=O)O (stereo not shown) [nicotine tartrate],–,–,–,–,–,–,–,–,–,only a small effect
